Measurements published in US20250243171A1, “QUINAZOLINE COMPOUNDS FOR TREATMENT OF DISEASE” (Arthrosi Therapeutics, Inc., priority 2021, published 2025).

How the values were obtained:
Assay in all cases: EC50 assay: Ba/F3 stable cell proliferation (CCK-8, 72 h)
Format in all cases: cell-based
[1] = biological target: T1, Ba/F3 stable cells (Homo sapiens, UniProt P00533, DUP768-770, cells depend on it); details: Ba/F3-EGFR D770-N771insSVD cells
T1 construct: EC50 Ba/F3-EGFR D770-N771insSVD; other: Ba/F3-EGFR D770-N771insSVD cells, 72 h, CCK-8
How it was run: (§1)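 Ba/F3 stable cells were seeded at 4,000 cells/90 μL/well in 96-well plates and held 2 h at 37° C. in 5% CO2, then given 10 μL of serially titrated compound (0.1% DMSO final). After 72 h at 37° C., CCK-8 reagent was added for 4 hours and absorbance read at 450 nm to derive EC50.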

[2] = biological target: T2, Ba/F3 stable cells (Homo sapiens, UniProt P00533, INS763FQEA, cells depend on it); details: Ba/F3-EGFR A763-Y764insFQEA cells
T2 construct: EC50 Ba/F3-EGFR A763-Y764insFQEA; other: Ba/F3-EGFR A763-Y764insFQEA cells, 72 h, CCK-8
How it was run: as §1

[3] = biological target: T3, Ba/F3 stable cells (Homo sapiens, UniProt P00533, T790M/L858R, cells depend on it); details: Ba/F3-EGFR L858R-T790M cells
T3 construct: EC50 Ba/F3-EGFR L858R-T790M; other: Ba/F3-EGFR L858R-T790M cells, 72 h, CCK-8
How it was run: as §1

[4] = biological target: T4, Ba/F3 stable cells (Homo sapiens, UniProt P04626, DUP772-775, cells depend on it); details: Ba/F3-HER2 A775-G776insYVMA cells
T4 construct: EC50 Ba/F3-HER2 A775-G776insYVMA; other: Ba/F3-HER2 A775-G776insYVMA cells, 72 h, CCK-8
How it was run: as §1

[5] = biological target: T5, Ba/F3 stable cells (Homo sapiens, UniProt P00533, DUP767-769, cells depend on it); details: Ba/F3-EGFR V769-D770insASV cells
T5 construct: EC50 Ba/F3-EGFR V769-D770insASV; other: Ba/F3-EGFR V769-D770insASV cells, 72 h, CCK-8
How it was run: as §1

[6] = biological target: T6, Ba/F3 stable cells (Homo sapiens, UniProt P00533, DUP771-773, cells depend on it); details: Ba/F3-EGFR H773-V774insNPH cells
T6 construct: EC50 Ba/F3-EGFR H773-V774insNPH; other: Ba/F3-EGFR H773-V774insNPH cells, 72 h, CCK-8
How it was run: as §1

T3 sequence (P00533 whole entry T790M/L858R): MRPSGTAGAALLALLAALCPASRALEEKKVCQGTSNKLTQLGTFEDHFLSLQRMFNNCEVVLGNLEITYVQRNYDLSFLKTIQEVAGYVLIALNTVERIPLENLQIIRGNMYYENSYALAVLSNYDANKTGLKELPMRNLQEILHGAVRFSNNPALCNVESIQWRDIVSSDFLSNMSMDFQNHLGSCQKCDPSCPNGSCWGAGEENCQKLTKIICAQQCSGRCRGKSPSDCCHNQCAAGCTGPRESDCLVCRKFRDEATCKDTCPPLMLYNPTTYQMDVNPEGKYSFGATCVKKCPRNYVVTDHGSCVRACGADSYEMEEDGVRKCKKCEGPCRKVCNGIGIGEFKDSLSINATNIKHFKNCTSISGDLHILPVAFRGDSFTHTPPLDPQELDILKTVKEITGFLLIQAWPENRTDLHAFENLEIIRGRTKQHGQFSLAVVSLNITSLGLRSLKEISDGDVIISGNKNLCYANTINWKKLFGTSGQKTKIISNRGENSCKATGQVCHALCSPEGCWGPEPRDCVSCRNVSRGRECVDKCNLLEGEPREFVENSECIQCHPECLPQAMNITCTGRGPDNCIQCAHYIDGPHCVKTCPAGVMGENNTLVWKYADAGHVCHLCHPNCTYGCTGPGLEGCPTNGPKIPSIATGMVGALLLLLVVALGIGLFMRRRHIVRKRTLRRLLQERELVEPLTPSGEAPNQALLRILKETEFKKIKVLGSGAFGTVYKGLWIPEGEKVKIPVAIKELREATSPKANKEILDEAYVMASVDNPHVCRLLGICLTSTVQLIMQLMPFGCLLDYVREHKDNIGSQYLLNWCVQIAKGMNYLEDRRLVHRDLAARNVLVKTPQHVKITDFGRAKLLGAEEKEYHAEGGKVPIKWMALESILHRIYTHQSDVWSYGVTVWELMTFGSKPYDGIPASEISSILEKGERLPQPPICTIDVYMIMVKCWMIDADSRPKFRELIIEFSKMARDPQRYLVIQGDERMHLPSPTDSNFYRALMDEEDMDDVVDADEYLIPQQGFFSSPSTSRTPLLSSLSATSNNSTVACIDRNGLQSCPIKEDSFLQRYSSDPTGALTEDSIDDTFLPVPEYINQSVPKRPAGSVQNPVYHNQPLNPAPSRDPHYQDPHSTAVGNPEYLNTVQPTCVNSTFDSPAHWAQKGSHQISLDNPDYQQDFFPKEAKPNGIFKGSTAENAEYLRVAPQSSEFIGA
T5 sequence (P00533 with tags, fused parts or gaps DUP767-769): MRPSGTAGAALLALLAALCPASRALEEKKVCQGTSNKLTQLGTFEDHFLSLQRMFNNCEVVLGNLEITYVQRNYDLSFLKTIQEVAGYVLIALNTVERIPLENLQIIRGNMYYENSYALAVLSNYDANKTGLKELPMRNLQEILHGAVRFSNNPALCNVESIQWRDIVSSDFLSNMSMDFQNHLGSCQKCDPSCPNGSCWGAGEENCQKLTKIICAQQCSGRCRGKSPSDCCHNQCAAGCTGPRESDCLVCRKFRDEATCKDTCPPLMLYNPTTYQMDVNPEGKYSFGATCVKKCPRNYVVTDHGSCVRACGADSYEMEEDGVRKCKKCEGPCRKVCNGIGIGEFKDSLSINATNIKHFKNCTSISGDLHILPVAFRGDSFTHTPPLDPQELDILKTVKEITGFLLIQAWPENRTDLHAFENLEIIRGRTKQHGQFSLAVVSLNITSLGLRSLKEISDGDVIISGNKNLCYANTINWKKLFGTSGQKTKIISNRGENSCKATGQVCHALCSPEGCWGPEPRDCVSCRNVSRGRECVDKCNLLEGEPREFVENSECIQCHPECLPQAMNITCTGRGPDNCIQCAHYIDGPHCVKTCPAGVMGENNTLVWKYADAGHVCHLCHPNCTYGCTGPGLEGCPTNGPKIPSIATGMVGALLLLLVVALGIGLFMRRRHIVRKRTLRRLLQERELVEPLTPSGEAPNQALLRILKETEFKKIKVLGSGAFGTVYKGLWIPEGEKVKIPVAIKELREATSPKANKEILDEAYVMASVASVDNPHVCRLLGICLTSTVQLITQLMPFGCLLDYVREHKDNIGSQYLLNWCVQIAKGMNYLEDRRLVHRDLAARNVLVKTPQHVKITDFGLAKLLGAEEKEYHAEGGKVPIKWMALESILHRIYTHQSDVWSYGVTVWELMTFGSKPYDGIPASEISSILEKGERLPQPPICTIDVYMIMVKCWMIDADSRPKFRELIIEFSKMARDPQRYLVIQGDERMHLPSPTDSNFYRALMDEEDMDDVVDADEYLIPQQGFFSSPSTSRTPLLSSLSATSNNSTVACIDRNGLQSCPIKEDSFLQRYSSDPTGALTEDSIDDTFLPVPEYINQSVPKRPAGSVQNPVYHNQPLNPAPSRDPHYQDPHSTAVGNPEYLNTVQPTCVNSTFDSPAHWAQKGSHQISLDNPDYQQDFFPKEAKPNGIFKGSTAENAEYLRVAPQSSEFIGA
T2 sequence (P00533 with tags, fused parts or gaps INS763FQEA): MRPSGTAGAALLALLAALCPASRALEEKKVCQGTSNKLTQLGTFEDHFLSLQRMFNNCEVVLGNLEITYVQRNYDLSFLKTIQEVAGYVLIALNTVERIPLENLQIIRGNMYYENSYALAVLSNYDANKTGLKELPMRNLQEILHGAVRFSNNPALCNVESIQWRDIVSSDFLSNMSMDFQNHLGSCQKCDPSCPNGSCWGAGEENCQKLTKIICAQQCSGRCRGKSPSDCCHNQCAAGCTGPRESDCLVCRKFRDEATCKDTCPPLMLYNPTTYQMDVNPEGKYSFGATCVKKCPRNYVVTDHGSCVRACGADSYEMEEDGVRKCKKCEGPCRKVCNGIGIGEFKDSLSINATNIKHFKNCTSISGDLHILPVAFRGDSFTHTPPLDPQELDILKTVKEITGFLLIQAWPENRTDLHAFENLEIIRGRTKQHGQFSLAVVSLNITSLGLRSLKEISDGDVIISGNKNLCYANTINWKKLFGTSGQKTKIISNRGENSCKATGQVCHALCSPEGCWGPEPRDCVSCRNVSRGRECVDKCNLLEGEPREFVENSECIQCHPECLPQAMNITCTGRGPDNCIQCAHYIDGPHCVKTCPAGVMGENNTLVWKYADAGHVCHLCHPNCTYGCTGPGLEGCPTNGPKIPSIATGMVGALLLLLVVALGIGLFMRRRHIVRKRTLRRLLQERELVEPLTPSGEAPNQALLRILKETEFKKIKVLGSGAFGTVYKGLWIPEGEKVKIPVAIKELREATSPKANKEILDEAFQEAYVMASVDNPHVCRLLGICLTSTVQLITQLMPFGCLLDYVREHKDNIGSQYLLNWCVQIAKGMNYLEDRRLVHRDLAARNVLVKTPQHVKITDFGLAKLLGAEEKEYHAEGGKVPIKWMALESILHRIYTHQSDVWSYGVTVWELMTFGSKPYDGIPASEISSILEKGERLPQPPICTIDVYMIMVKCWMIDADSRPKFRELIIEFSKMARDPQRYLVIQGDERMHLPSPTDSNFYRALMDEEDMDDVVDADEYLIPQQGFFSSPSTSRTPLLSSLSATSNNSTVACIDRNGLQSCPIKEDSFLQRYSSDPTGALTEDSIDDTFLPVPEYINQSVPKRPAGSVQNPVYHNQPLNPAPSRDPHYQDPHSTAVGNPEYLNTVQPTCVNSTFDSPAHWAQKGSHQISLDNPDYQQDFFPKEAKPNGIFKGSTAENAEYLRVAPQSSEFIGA
T6 sequence (P00533 with tags, fused parts or gaps DUP771-773): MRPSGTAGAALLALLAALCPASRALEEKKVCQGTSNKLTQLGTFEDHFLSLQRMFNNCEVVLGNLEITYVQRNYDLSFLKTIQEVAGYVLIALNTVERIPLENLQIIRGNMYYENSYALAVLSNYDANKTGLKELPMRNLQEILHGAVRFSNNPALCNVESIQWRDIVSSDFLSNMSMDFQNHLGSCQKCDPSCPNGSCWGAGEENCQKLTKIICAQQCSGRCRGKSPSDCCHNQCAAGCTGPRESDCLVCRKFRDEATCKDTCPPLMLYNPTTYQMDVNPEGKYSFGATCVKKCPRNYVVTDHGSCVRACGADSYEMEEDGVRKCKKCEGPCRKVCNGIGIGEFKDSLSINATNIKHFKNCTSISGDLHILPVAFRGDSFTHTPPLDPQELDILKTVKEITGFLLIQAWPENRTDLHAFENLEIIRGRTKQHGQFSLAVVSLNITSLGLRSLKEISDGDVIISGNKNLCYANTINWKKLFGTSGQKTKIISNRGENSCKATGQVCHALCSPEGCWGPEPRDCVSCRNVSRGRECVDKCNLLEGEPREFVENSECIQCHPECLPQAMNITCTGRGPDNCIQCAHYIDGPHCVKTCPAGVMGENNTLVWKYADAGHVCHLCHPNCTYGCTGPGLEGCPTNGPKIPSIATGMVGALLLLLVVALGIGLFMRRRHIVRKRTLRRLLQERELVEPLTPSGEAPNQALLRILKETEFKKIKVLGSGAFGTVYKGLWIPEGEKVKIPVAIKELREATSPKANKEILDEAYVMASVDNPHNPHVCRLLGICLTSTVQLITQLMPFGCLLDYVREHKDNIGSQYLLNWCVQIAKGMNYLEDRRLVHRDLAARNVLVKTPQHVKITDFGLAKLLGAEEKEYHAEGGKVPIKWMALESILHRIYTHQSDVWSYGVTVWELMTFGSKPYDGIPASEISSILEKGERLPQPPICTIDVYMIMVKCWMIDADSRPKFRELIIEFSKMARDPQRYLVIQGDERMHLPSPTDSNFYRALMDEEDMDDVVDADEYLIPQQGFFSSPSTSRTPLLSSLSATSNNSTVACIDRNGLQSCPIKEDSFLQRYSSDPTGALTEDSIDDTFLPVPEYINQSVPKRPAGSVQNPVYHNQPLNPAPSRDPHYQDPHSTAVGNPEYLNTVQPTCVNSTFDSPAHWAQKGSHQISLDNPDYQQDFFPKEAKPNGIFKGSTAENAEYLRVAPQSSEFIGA

Structure (SMILES)	EC50 [1]	EC50 [2]	EC50 [3]	EC50 [4]	EC50 [5]	EC50 [6]
C=CC(=O)N1CCC(Oc2cc3c(Nc4ccc5ncsc5c4)ncnc3cc2OC)CC1 [Compound 145, 1-(4-((4-(benzo[d]thiazol-6-ylamino)-7-methoxyquinazolin-6-yl)oxy)piperidin-1-yl)prop-2-en-1-one]	> 1000 nM	≤ 200 nM	200 to 1000 nM	> 1000 nM	200 to 1000 nM	200 to 1000 nM
C=CC(=O)N1CCC(Oc2cc3c(Nc4cccc5cccnc45)ncnc3cc2OC)CC1 [Compound 146, 1-(4-((7-methoxy-4-(quinolin-8-ylamino)quinazolin-6-yl)oxy)piperidin-1-yl)prop-2-en-1-one]	200 to 1000 nM	≤ 200 nM	200 to 1000 nM	200 to 1000 nM	≤ 200 nM	200 to 1000 nM
C=CC(=O)N1CCC(Oc2cc3c(N4CCN(c5cccc(Cl)c5)CC4)ncnc3cc2OC)CC1 [Compound 147, 1-(4-((4-(4-(3-chlorophenyl)piperazin-1-yl)-7-methoxyquinazolin-6-yl)oxy)piperidin-1-yl)prop-2-en-1-one]	> 1000 nM	> 1000 nM	> 1000 nM	> 1000 nM	> 1000 nM	> 1000 nM
C=CC(=O)N1CCC(Oc2cc3c(Nc4ccc5ccccc5c4)ncnc3cc2OC)CC1 [Compound 148, 1-(4-((7-methoxy-4-(naphthalen-2-ylamino)quinazolin-6-yl)oxy)piperidin-1-yl)prop-2-en-1-one]	≤ 200 nM	≤ 200 nM	≤ 200 nM	200 to 1000 nM	≤ 200 nM	≤ 200 nM
C=CC(=O)N1CCC(Oc2cc3c(Nc4cccc5ccccc45)ncnc3cc2OC)CC1 [Compound 149, 1-(4-((7-methoxy-4-(naphthalen-1-ylamino)quinazolin-6-yl)oxy)piperidin-1-yl)prop-2-en-1-one]	≤ 200 nM	≤ 200 nM	≤ 200 nM	≤ 200 nM	≤ 200 nM	≤ 200 nM
C=CC(=O)N1CCC(Oc2cc3c(Nc4ccc5[nH]ncc5c4)ncnc3cc2OC)CC1 [Compound 150, 1-(4-((4-((1H-indazol-5-yl)amino)-7-methoxyquinazolin-6-yl)oxy)piperidin-1-yl)prop-2-en-1-one]	> 1000 nM	≤ 200 nM	> 1000 nM	> 1000 nM	200 to 1000 nM	200 to 1000 nM
C=CC(=O)N1CCC(Oc2cc3c(Nc4cc5oc6ccccc6c5cc4OC)ncnc3cc2OC)CC1 [Compound 151, 1-(4-((7-methoxy-4-((2-methoxydibenzo[b,d]furan-3-yl)amino)quinazolin-6-yl)oxy)piperidin-1-yl)prop-2-en-1-one]	> 1000 nM	> 1000 nM	> 1000 nM	> 1000 nM	> 1000 nM	> 1000 nM
C=CC(=O)N1CCC(Oc2cc3c(Nc4ccc5c(c4)OCO5)ncnc3cc2OC)CC1 [Compound 152, 1-(4-((4-(benzo[d][1,3]dioxol-5-ylamino)-7-methoxyquinazolin-6-yl)oxy)piperidin-1-yl)prop-2-en-1-one]	200 to 1000 nM	≤ 200 nM	200 to 1000 nM	≤ 200 nM	200 to 1000 nM	200 to 1000 nM
C=CC(=O)N1CCC(Oc2cc3c(Nc4ccc5c(c4)CCC5)ncnc3cc2OC)CC1 [Compound 153, 1-(4-((4-((2,3-dihydro-1H-inden-5-yl)amino)-7-methoxyquinazolin-6-yl)oxy)piperidin-1-yl)prop-2-en-1-one]	200 to 1000 nM	≤ 200 nM	200 to 1000 nM	200 to 1000 nM	≤ 200 nM	200 to 1000 nM
C=CC(=O)N1CCC(Oc2cc3c(Nc4ccc5sc(C)nc5c4)ncnc3cc2OC)CC1 [Compound 155, 1-(4-((7-methoxy-4-((2-methylbenzo[d]thiazol-5-yl)amino)quinazolin-6-yl)oxy)piperidin-1-yl)prop-2-en-1-one]	> 1000 nM	≤ 200 nM	200 to 1000 nM	200 to 1000 nM	> 1000 nM	> 1000 nM
